Usually IC50 stands for the midpoint of a concentration-inhibition curve. A word on the viability: it is a read-out of living cells in per cent, often relative to untreated cells.

“Also recorded” adds a separate entry of the source.

Series [1] deals with T1, hyaluronidase from bovine testes Type I-S (Bos taurus, UniProt Q2YDK3).
T1 construct: purchased Sigma Aldrich; host or cells: bovine testes (tissue-derived preparation)
T1 sequence (Q2YDK3 36-553): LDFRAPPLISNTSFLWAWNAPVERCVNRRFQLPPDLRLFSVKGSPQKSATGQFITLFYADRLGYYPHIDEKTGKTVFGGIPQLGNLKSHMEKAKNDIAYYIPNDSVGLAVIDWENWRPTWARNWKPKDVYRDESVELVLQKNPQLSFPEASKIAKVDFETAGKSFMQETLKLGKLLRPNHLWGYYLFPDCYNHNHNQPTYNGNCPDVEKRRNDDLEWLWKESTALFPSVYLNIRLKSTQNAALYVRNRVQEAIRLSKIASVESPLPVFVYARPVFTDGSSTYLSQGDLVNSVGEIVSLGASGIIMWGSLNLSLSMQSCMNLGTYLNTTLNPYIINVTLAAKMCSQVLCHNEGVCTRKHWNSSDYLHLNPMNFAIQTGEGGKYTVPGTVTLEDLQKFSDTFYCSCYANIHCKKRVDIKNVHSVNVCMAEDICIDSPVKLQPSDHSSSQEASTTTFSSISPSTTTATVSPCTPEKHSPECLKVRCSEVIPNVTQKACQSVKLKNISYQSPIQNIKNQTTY
As to the kind of experiment: Hyaluronidase inhibition assay (turbidimetric). Format: biochemical. The conditions noted are these: read-out: HYAL IC50 ± SD.

The next series relates to HT-29 cells. In words: MTT cytotoxicity assay, HT-29. Format: cell-based. As to conditions: Homo sapiens, HT-29; MTT, 24 h incubation; read-out: IC50 µM ± SD against HT-29. The text has this:
(§1) The MTT assay was used to evaluate cell metabolic activity. The test principle is based on the determination of cell viability by measuring the metabolic activity in mitochondria. Enzymatically active mitochondria reduce the water-soluble MTT (3-(4,5-dimethylthiazol-2-yl)-2,5 diphenyltetrazoliumbromide) to blue–violet insoluble formazan. The number of viability cells is proportional to the colour intensity determined by photometric measurements (an analytical wavelength 570 nm) after dissolving the formazan in Dimethylsulfoxide (DMSO) (Serva) and Sorensen’s glycine buffer. MTT (Sigma Aldrich) was dissolved in Phosphate Buffered Saline (PBS) (PAN-Biotech) at a concentration of 0.5 mg/mL. Sorensen’s glycine buffer is made of 0.1 M glycine and 0.1 M NaCl, at pH 10.5. Studied compounds were dissolved in DMSO in order to receive stock solutions.
(§2) For the assay, cells were seeded into 96-well plates at density 10^4 cells per well and cultured for 24 h at 37 °C and 5% CO2. Then medium was removed, and cells were exposed to the 100 µL of the compound solutions over a range of concentrations (final DMSO concentration was below 0.2%) or nothing but culture medium (blank control). Pure DMSO was used as a positive control. After 24 h of incubation with the compound solutions, medium was removed and 50 µL of the MTT solution was added to each well and incubated in the dark for additional 2 h at 37 °C. Then the MTT solution was carefully removed and 100 µL of DMSO was added. Plates were incubated for 10 min at room temperature. Finally, 5 µL of Sorensen Buffer was added to each well. Plate was swayed, and the absorbance was measured by using microplate reader (Synergy H1, BioTek, Winooski, VT, USA) at a wavelength of 570 nm. The cell viability was expressed as a percentage of the control values (blank). The experiments were done in triplicate.
For orientation: Tetrazolium assays rely on reduction of a dye to a coloured formazan, in cell work by metabolically active cells.

In another series the test system is supercoiled pUC19 DNA. The conditions noted are these: 100 µM; human Topoisomerase I.
The next series relates to EA.hy926 cells. As to the kind of experiment: MTT cytotoxicity assay, EA.hy926. Format: cell-based, human. The conditions noted are these: Homo sapiens, EA.hy 926; MTT, 24 h incubation; read-out: IC50 µM ± SD against EA.hy926.
Description: The EA.hy926 cells (the human umbilical vein, somatic cell hybrid) (American Type Culture Collection) are immortalized human umbilical vein endothelial cells. They have morphological, phenotypic and functional characteristics of human endothelial cells, without the limited lifespan. This cell line has been considered as a good model for anticancer drug screening and was chosen to evaluate the endothelial cytotoxicity of novel compounds.
as §1, §2

The subject of a further series is SH-SY5Y cells. As to the kind of experiment: Cytoprotection against H2O2 (100 µM), MTT. The conditions noted are these: for Cells viability (%) ± SD after 24 h of incubation with compound and H2O2: H2O2 100 µM, H2O2 only 82.74%.
Another series has as its system PARP-1. In words: Western blot of PARP-1 cleavage, A549. Format: cell-based, human. The conditions noted are these: A549, 24 h, IC50 and 1/2IC50. As for the experimental part:
Then, cells were treated with chosen compounds. After 24 h of incubation, monolayer and supernatant were harvested and washed in cold PBS. Cells were centrifuged—monolayer at 1200 rpm for 10 min, supernatant 3500 rpm for 10 min. Pellets were dissolved in RIPA Lysis and Extraction buffer (Bio-Rad) containing Phosphatase Inhibitor Cocktail 3 (Sigma Aldrich) and Protease Inhibitor Cocktail (Sigma Aldrich). Samples were incubated in ice for 30 min and mixed every 10 min. Then, samples were centrifuged at 12,000 rpm for 25 min. Protein concentration in supernatants was measured in triplicate using a Protein Assay (Bio-Rad). Proteins were separated by SDS–polyacrylamide gel electrophoresis. Separating and stacking gels were made of different ratios of water, Tris–HCl pH 6.8 and pH 8.8, 10% SDS (Sigma Aldrich), Acrylamide/bis-acrylamide (Sigma Aldrich), 10% APS (Sigma Aldrich), TEMED (Sigma Aldrich). 7.5% gels were prepared for analysis PARP-1, whereas 12% gels prepared for γ-H2AX. After separation on SDS–polyacrylamide gels, proteins were electroblotted on nitrocellulose membrane in Transfer Buffer (Glycine, Tris, Methanol). Membranes were washed in TBS/0.1% or 0.05% Tween20 solution and blocked in Tris-buffered saline with 5% of non-fated dried milk for 1 h. Membranes were then incubated overnight with primary antibodies—anti-PARP-1 (Cell Signaling Technology), anti-γ-H2A.X (Cell Signaling Technology), anti-β-actin (Cell Signaling Technology) in cold room (6 °C). After incubation, membranes well washed with TBS/Tween solution and blocked with and horseradish peroxidase-conjugated secondary antibodies (Bio-Rad) for 1 h in cold room. Protein bands were visualized using ECL™ Prime Western Blotting Detection Reagents (Sigma Aldrich) Healthcare and Carestream Kodak autoradiography GBX fixer/replenisher (Sigma Aldrich) with Developer and Replenisher (Carestream) in the dark room. Results were obtained on Autoradiography Film (Santa Cruz Biotechnology). Densitometric analysis was performed by using a software program (ImageJ). […]

For the next series, the system named is A549 cells. In words: Reactive oxygen species assay (DCFH-DA), A549. The class given is cell-based, human. The conditions noted are these: compound at IC50 24 h plus H2O2, H2O2 only 1.86-fold. How it is done:
After incubation, compounds were added into the wells and further incubated for next 24 h. H2O2 (1 mM) was added at 22nd h of incubation with compounds. H2O2 was used as a positive control. 30 min before the analysis, DCFH-DA (20 µM) was added to the wells. After incubation, cells were harvested and washed in PBS. Then, cells were centrifuged at 1500 rpm for 10 min. Medium was removed and cells were suspended in PBS. Analysis was performed on BD Accuri C6 Flow Cytometry (Becton–Dickinson).

Setting [2] is: Homo sapiens, 24 h, read-out: Cells viability (%) ± SD after 24 h of incubation with compound and H2O2.

As for `O=C(NCCCCNc1c2c(nc3ccccc13)CCCC2)c1ccccc1I` [Compound 1c], the IC50 in series [1] is 244 ± 7.95 µM; with HT-29 cells, 13.6 ± 1.39 µM; with EA.hy926 cells it was 14.3 ± 1.65 µM. Besides, the “Intercalation: supercoiled pUC19 DNA band (in words)” value (“Intercalation … (in words)” for short) in the series with supercoiled pUC19 DNA was “bands at the same level as EB”. In addition, the viability at 1 µM with SH-SY5Y cells (setting [2]) stood at 101 ± 1.19%.
On to `O=C(NCCCNc1c2c(nc3ccccc13)CCCC2)c1cccc(I)c1` [Compound 1e], for which, in the series on PARP-1, the “Cleaved PARP-1 (89 kDa) level (in words)” value is listed as “comparable apoptotic effect at their IC50 concentrations; also recorded: highest PARP-1 cleavage was observed for 1/2IC50 (11.75 µM)”. Besides, the results for the IC50 (in series [1]; in the series with HT-29 cells; in the series on EA.hy926 cells) were 231 ± 5.64 µM, 11 ± 0.59 µM and 11.7 ± 0.62 µM, respectively. The “Intercalation … (in words)” value in the series on supercoiled pUC19 DNA is recorded as “bands at the same level as EB”. Further, the viability at 1 µM in the series with SH-SY5Y cells (setting [2]) stood at 89.8 ± 8.55%. In addition, the “Increase in ROS level (DCF fluorescence) in comparison with non-treated control” value (shortened to “Increase in ROS level … with non-treated control”) in the series with A549 cells is 1.98 fold.
Turning to `O=C(NCCCCNc1c2c(nc3ccccc13)CCCC2)c1ccc(I)cc1` [Compound 1i], the “Cleaved PARP-1 (89 kDa) level (in words)” value with PARP-1 was “highest effect”. Moreover, the IC50 in series [1] worked out at 234 ± 8.98 µM. The IC50 in the series with HT-29 cells is 5.9 ± 0.42 µM. Moreover, in the series with EA.hy926 cells, the IC50 was 11.3 ± 0.89 µM. Besides, in the series on SH-SY5Y cells (H2O2 100 µM, 29.74, 14.87, 5.90 and 1 µM), the “Neuroprotection against H2O2 (in words)” value is “neuroprotection was not observed at any dose”. For the same compound, in the series on SH-SY5Y cells (setting [2]), the viability at 1 µM stood at 29.7 ± 3.39%, the viability at 5.9 µM was determined as 25.9 ± 1.24%, the viability at 14.87 µM was determined as 20.7 ± 1.45% and the viability at 29.74 µM stood at 18.7 ± 1.25%. In the series with A549 cells, the “Increase in ROS level … with non-treated control” value was 1.98 fold.
For `O=C(NCCCNc1c2c(nc3ccccc13)CCCC2)c1ccccc1I` [Compound 1b], the “Cleaved PARP-1 (89 kDa) level (in words)” value in the series on PARP-1 is “comparable apoptotic effect at their IC50 concentrations”. Also, the concentration for half-maximal inhibition (IC50) was 233 ± 4.87 µM in series [1], 16.1 ± 1.55 µM in the series on HT-29 cells and 22.4 ± 2.3 µM in the series on EA.hy926 cells. Moreover, the “Intercalation … (in words)” value with supercoiled pUC19 DNA is “bands at the same level as EB”. In addition, the “Cells viability (%) ± SD after 24 h of incubation with compound and H2O2” value in the series on SH-SY5Y cells (concentration: 1b 16.26, 1c 6.79, 1e 11.75, 1f 4.26, 1i 5.90 µM) is reported as 64.61 ± 4.88 %; in the series with SH-SY5Y cells (concentration: 1b 65.04, 1c 27.16, 1e 46.98, 1f 17.04, 1i 29.74 µM), 17.21 ± 1.18 %. Further, in the series on SH-SY5Y cells (setting [2]), the viability at 1 µM is 99.2 ± 1.67%. For the same compound, the “Increase in ROS level … with non-treated control” value in the series on A549 cells stood at 1.98 fold.
